Test [1] relates to T1, ancestral 3-ketosteroid receptor (ancSR2).
T1 construct: ancSR2 LBD, residues 2 through 248 modeled
The test can be described thus: X-ray crystal structure at […] Å; the EC50 is from a Gal4-DBD–LBD luciferase reporter assay in CHO-K1 cells. The test is classed as cell-based, synthetic construct. For orientation: A reporter such as luciferase makes a cellular process visible.

The test system is the same in test [2]. The test can be described thus: X-ray crystal structure at […] Å (ternary complex, surface sites); the EC50 is from a separate CHO-K1 luciferase reporter assay and is not assigned to these sites. The test is classed as cell-based, synthetic construct.

The term EC50 denotes the concentration needed to bring the measured effect to its halfway point. Low readings indicate an effect from little substance, high ones a need for much substance. On to `CC(=O)[C@H]1CC[C@H]2[C@@H]3CCC4=CC(=O)CC[C@]4(C)[C@H]3CC[C@]12C` [progesterone], for which, in test [1], the response was half-maximal at 0.078 ± 0.0017 nM (EC50). `CC#C[C@]1(O)CC[C@H]2[C@@H]3CCC4=CC(=O)CCC4=C3[C@@H](c3ccc(N(C)C)cc3)C[C@@]21C` [mifepristone] displayed an EC50 in test [2] of 56 ± 1.2 nM.

These data come from paper PMC3834340, “X-Ray Crystal Structure of the Ancestral 3-Ketosteroid Receptor–Progesterone–Mifepristone Complex Shows Mifepristone Bound at the Coactivator Binding Interface” (PLoS ONE, 2013).
